Marks after values point to notes of the source that are not given here.
Key:
mouse V1a receptor = mouse V1a receptor (Mus musculus, UniProt Q62463); experiment: Functional V1a in vivo test: inhibition of oxytocin-induced scratching behaviour; conditions: mice
Procedure, shortened: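 Male NMRI mice received test substance or vehicle, then oxytocin 0.3 mg/kg s.c. Scratching was recorded by LABORAS after 1 h cage habituation. Inhibition was expressed as % between the saline (0%) and vehicle-plus-oxytocin (100%) group means, analysed by ANOVA with Tukey test.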

[1] = target: mouse vasopressin V1a receptor (Mus musculus, UniProt Q62463); experiment: Mouse vasopressin V1a receptor binding assay; conditions: 1321N1 cell membranes; read-out: Ki (nM) on mV1a cell line
Sequence of mouse vasopressin V1a receptor (Q62463 whole entry): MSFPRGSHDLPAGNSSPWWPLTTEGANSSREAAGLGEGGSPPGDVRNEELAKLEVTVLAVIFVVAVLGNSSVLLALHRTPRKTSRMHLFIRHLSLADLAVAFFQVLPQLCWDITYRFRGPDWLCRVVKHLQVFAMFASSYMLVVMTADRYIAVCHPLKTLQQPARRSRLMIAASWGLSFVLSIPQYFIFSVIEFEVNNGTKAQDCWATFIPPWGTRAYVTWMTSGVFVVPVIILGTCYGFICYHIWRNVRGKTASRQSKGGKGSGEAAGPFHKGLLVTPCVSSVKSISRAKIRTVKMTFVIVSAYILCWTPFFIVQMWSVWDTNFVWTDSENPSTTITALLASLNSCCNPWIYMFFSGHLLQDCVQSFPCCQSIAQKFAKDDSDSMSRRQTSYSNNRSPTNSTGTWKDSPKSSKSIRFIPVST
Excerpt: Mouse Vasopressin V1a Receptor Binding Assay Cells and Radioligand
The immortalized 1321N1 cell line (B9/1321N1 clone) constitutively and stably expressing Mouse vasopressin V1a receptor vasopressin (8-L-Arginine), [Phenylalanyl-3,4,5-^3H(N)] labelled compound (Perkin Elmer Life and Analytical Sciences) as radioligand were used to determine the affinity of the prepared compounds.
Membrane-preparation: Membrane preparation of immortalized 1321N1 cells expressing the propagated mouse Vasopressin V1a receptor was made according to Jarvis's method (Jarvis et al., J Pharmacol Exp Ther […], 310:407-16). Cells were suspended in preparative buffer (50 mM Tris, 1 mM EDTA, 0.1 mM PMSF) and homogenized with glass homogenizing potter. To separate the raw membrane fraction two consecutive centrifugation procedures (40,000 g for 25 minutes at 4° C.) were executed, then the membrane was taken into the preparatory buffer during a final washing step, it was divided into aliquots which were stored at −80° C. until the time of measurement.
The protein content of the prepared membrane was determined according to Lowry's method using standard dilution line of bovine serum albumin (BSA) (Lowry et al., J Biol Chem 1951, 193:265-75).
(§1) To determine the final affinity value, the results of at least two independent experiments were taken into account.
(§2) Non-specific binding values were determined in the presence of an unlabeled 1.2×10^−6 M (Arg^8)-vasopressin. Samples were incubated in a total volume of 0.33 ml for 60 minutes at 27° C. Membrane-bound and free ligands were separated by filtration through a 0.5% polyethyleneimine-impregnated UniFilter® GF/B™ After drying the filter plates, 40 μl Microscint-20 (Packard) scintillation cocktail was added to the samples. Finally, radioactivity was measured using MicroBeta^2 Microplate Counter (Perkin Elmer).
(§3) The radioligand clamping ability of a substance is determined in at least two independent experiments. Specific radioligand binding can be defined as the difference between total and non-specific binding in the presence of a saturation amount of the unlabeled ligand or different concentrations of the substance to be tested. The results are given as a percentage of inhibition of the specific binding achieved in the presence of the substance to be tested.
The IC50 data (i.e. the concentration of the unknown substance which displaces 50% of specific bound radioligand) is calculated from the concentration-displacement curve using the sigmoid fitting mathematical method y=(A1−A2)/(1+(x/x0)p)+A2 with Origin 7.5. software (OriginLab Corporation, Northampton, USA). During fitting, the asymptotes are not fixed. The Ki values (inhibition constant) are given with Cheng-Prusoff equation Ki=IC50/[1+(L/KD)] wherein [L] is the radioligand concentration used in the experiment and [KD] is the affinity of the radioactively labelled ligand for the given receptor. The KD is determined beforehand using the Scatchard curve.

[2] = target: human vasopressin V2 receptor (Homo sapiens, UniProt P30518); experiment: Human vasopressin V2 receptor binding assay on 1321N1 cell line; conditions: 1321N1 cell line; read-out: Ki on hV2 1321N1 cell line
Sequence of human vasopressin V2 receptor (P30518 whole entry): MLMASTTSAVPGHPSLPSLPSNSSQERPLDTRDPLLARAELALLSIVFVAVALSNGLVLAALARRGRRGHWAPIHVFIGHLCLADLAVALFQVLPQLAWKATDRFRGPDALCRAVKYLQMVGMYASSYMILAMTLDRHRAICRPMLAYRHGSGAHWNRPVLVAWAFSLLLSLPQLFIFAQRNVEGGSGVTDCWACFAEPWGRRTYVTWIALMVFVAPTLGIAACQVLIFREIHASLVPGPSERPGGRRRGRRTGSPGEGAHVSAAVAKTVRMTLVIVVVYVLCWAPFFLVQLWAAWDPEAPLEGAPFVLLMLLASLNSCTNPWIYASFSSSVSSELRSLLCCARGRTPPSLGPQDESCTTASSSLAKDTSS
Method: Human Vasopressin V2 Receptor Binding Assay Cells and Radioligand
as §1
as §2, with “0.55” for “0.33”, “90” for “60”, “GF/B™.” for “GF/B™”
as §3, with “displacement” for “clamping”
During fitting, the asymptotes are not fixed. The Ki values (inhibition constant) are given with Cheng-Prusoff equation Ki=IC50/[1+(L/KD)] wherein [L] is the radioligand concentration used in the experiment and [KD] is the affinity of the radioactively labelled ligand for the given receptor. The KD is determined beforehand using the Scatchard curve.

Sequence of mouse V1a receptor (Q62463 whole entry): as the sequence (Q62463 whole entry) above

Row | Compound | inhibition (%) of oxytocin-induced scratching behaviour response (mouse V1a receptor; 10 mg/kg p.o. pretreatment) [%] | Ki [1] [nM] | Ki [2] [nM] | inhibition (%) of oxytocin-induced scratching behaviour response (mouse V1a receptor; after i.p. treatment (table title: 10 mg/kg))
1 | CC(=O)NC1Cc2cc(Cl)ccc2-n2c(nnc2[C@H]2CC[C@H](Oc3ccccn3)CC2)C1 (stereo partly drawn) [Example 9, N-{8-chloro-1-[trans-4-(pyridin-2-yloxy)cyclohexyl]-5,6-dihydro-4H-[1,2,4]triazolo[4,3-a][1]benzazepin-5-yl}acetamide] | – | 31 | 1190 | 106* %
2 | O=C1Cc2cc(Cl)ccc2-n2c(nnc2[C@H]2CC[C@H](Oc3ccccn3)CC2)C1 [Example 54, 8-chloro-1-[trans-4-(pyrin-2-yloxy)cyclohexyl]-4H-[1,2,4]triazolo[4,3-a][1]benzazepin-5(6H)-one] | 70 | 43 | 662 | –
3 | O[C@@H]1Cc2cc(Cl)ccc2-n2c(nnc2[C@H]2CC[C@H](Oc3ccccn3)CC2)C1 [Example 57, (5R)-8-chloro-1-[trans-4-(pyridin-2-yloxy)cyclohexyl]-5,6-dihydro-4H-[1,2,4]triazolo[4,3-a][1]benzazepin-5-ol] | 84 | 12 | 446 | –

Further molecules by falling Ki [1], results first:

Row | inhibition (%) of oxytocin-induced scratching behaviour response (mouse V1a receptor; 10 mg/kg p.o. pretreatment) [%] | Ki [1] [nM] | Ki [2] [nM] | inhibition (%) of oxytocin-induced scratching behaviour response (mouse V1a receptor; after i.p. treatment (table title: 10 mg/kg)) | Compound
4 | 64 | 161 | 3050 | – | N[C@@H]1Cc2cc(Cl)ccc2-n2c(nnc2[C@H]2CC[C@H](Oc3ccccn3)CC2)C1 [Example 8, (5R)-8-chloro-1-[trans-4-(pyridin-2-yloxy)cyclohexyl]-5,6-dihydro-4H-[1,2,4]triazolo[4,3-a][1]benzazepine-5-amine]
5 | 91 | 21 | 469 | – | OC1Cc2cc(Cl)ccc2-n2c(nnc2[C@H]2CC[C@H](Oc3ccccn3)CC2)C1 (stereo partly drawn) [Example 55, 8-chloro-1-[trans-4-(pyridin-2-yloxy)cyclohexyl]-5,6-dihydro-4H-[1,2,4]triazolo[4,3-a][1]benzazepin-5-ol]
6 | 49 | 13 | 575 | – | c1ccc(O[C@H]2CC[C@H](c3nnc4n3-c3ccccc3CC3(C4)OCCO3)CC2)nc1 [Example 63, 1′-[trans-4-(pyridin-2-yloxy)cyclohexyl]-4′H,6′H-spiro[1,3-dioxolane-2,5′-[1,2,4]triazolo[4,3-a][1]benzazepine]]
7 | 99 | 0.6 | 53 | – | Brc1ccc2c(c1)CC1(Cc3nnc([C@H]4CC[C@H](Oc5ccccn5)CC4)n3-2)OCCO1 [Example 62, 8′-bromo-1′-[trans-4-(pyridin-2-yloxy)cyclohexyl]-4′H,6′H-spiro[1,3-dioxolane-2,5′ [1,2,4]triazolo[4,3-a][1]benzazepine]]
